In assay [1] the test system is S. aureus ATCC 29213. The experiment in a line: Broth microdilution MIC assay, S. aureus. The class given is cell-based. The settings on record: broth microdilution, 16-20 hours at 37° C.; for MIC: Staphylococcus aureus, ATCC29213, read-out: S. aureus 29213 MIC. The protocol:
(§1) To determine the ability of test compounds to potentiate the inhibition of the growth of bacterial strains, classic cell based broth microdilution MIC assays were employed. MIC assays are performed according to CLSI methods except where otherwise noted (CLSI, 2011 and CLSI, 2009). The reference strain S. aureus ATCC 29213 and the hyper-permeable E. coli 901C were used to determine the ability of the PBP compounds to inhibit bacterial growth. Briefly, cryo-preserved bacterial cultures of clinical strains are streaked for isolation on appropriate agar medium, in this case Mueller Hinton II agar. Following incubation to allow formation of colonies these plates are sealed with parafilm and stored refrigerated for up to two weeks. For preparation of assay inocula and to ensure low variability, at least 5 colonies are picked from the agar plates with an inoculating loop and aseptically transferred to a culture tube containing 3 mL of Mueller-Hinton Broth (supplemented with divalent cations to required levels based on Manufacturers' certification). The broth culture is grown for 3-5 hours at 37° C. with shaking at 200 rpm. Meanwhile, 2-fold serial dilutions of test compounds are conducted in a 96 well plate with a final volume of 75 μL per well at 2-fold the final desired concentration. After the dilution plates are set up the growing cultures are then diluted in a cuvette containing MH II broth and the optical density is measured at 600 nm. Inocula are diluted such that 75 μL of this culture in Mueller-Hinton Broth results in a starting bacterial concentration of 5×10^5 CFU/mL when added to the dilution plates. The plates are incubated 16-20 hours at 37° C. The MIC is read visually as the lowest concentration well with no bacterial growth.
For orientation: In broth dilution the organism is exposed to a series of concentrations in liquid medium.

Assay [2] relates to hyper-permeable E. coli 901C. The experiment in a line: Broth microdilution MIC assay, hyper-permeable E. coli. The class given is cell-based. The settings on record: for MIC: Escherichia coli, read-out: E. coli 901C MIC. The protocol: as §1

As a reminder, the MIC is the lowest concentration that inhibits growth of the organism. For `Nc1nc(/C(=N/O)C(=O)N[C@H]2Cc3ccc(C=O)c(C(=O)O)c3OB2O)cs1` [Example 24, (R,Z)-3-(2-(2-aminothiazol-4-yl)-2-(hydroxyimino)acetamido)-7-formyl-2-hydroxy-3,4-dihydro-2H-benzo[e][1,2]oxaborinine-8-carboxylic Acid], the MIC in assay [1] is 64 to 128 µg/mL; in assay [2], over 128 µg/mL.

As to `NCCn1nnc(C(=NO)C(=O)N[C@H]2Cc3cccc(C(=O)O)c3OB2O)n1` [Example 111, (R)-3-(2-(2-(2-aminoethyl)-2H-tetrazol-5-yl)-2-(hydroxyimino)acetamido)-2-hydroxy-3,4-dihydro-2H-benzo[e][1,2]oxaborinine-8-carboxylic Acid], the MIC in assay [1] and in assay [2] was over 128 µg/mL each time.

Consider `Nc1nc(/C(=N/OC2CNC2)C(=O)N[C@H]2Cc3cccc(C(=O)O)c3OB2O)cs1` [Example 53, (R,Z)-3-(2-(2-aminothiazol-4-yl)-2-((azetidin-3-yloxy)imino)acetamido)-2-hydroxy-3,4-dihydro-2H-benzo[e][1,2]oxaborinine-8-carboxylic Acid], for which the MIC in assay [1] is over 128 µg/mL; in assay [2], 64 to 128 µg/mL.

As for `Nc1ncc(C(=NO)C(=O)N[C@H]2Cc3cccc(C(=O)O)c3OB2O)s1` (stereo in doubt) [Example 95, (R,Z)-3-(2-(2-aminothiazol-5-yl)-2-(hydroxyimino)acetamido)-2-hydroxy-3,4-dihydro-2H-benzo[e][1,2]oxaborinine-8-carboxylic Acid], the figures for the minimum inhibitory concentration (MIC) in assay [1] and in assay [2] were under 64 µg/mL and over 128 µg/mL, respectively.

Take `Nc1nc(/C(=N/O)C(=O)N[C@@H]2Cc3cccc(C(=O)O)c3OB2O)cs1` [Example 9, (S,Z)-3-(2-(2-aminothiazol-4-yl)-2-(hydroxyimino)acetamido)-2-hydroxy3,4-dihydro-2H-benzo[e][1,2]oxaborinine-8-carboxylic Acid]: the minimum inhibitory concentration (MIC) in assay [1] and in assay [2] was over 128 µg/mL each time.

In the case of `CO/N=C(/C(=O)N[C@H]1Cc2cccc(C(=O)O)c2OB1O)c1cccnc1` [Example 3, (R,E)-2-hydroxy-3-(2-(methoxyimino)-2-(pyridin-3-yl)acetamido)-3,4-dihydro-2H-benzo[e][1,2]oxaborinine-8-carboxylic Acid], the minimum inhibitory concentration (MIC) in assay [1] and in assay [2] was over 128 µg/mL each time.

Regarding `O=C(N[C@H]1Cc2cccc(C(=O)O)c2OB1O)/C(Cn1cncn1)=N\O` [Example 126, (R,Z)-2-hydroxy-3-(2-(hydroxyimino)-3-(1H-1,2,4-triazol-1-yl)propanamido)-3,4-dihydro-2H-benzo[e][1,2]oxaborinine-8-carboxylic Acid], the MIC in assay [1] and in assay [2] was over 128 µg/mL in each case.

As to `Nc1nc(/C(=N/OCCCCl)C(=O)N[C@H]2Cc3cccc(C(=O)O)c3OB2O)cs1` [Example 115, (R,Z)-3-(2-(2-aminothiazol-4-yl)-2-((3-chloropropoxy)imino)acetamido)-2-hydroxy-3,4-dihydro-2H-benzo[e][1,2]oxaborinine-8-carboxylic Acid], the MIC in assay [1] is over 128 µg/mL; in assay [2], under 64 µg/mL.

As for `C[N+]1(Cc2ccc3c(c2C(=O)[O-])OB(O)[C@@H](NC(=O)/C(=N\O)c2csc(N)n2)C3)CCCC1` [Example 26, (R,Z)-3-(2-(2-aminothiazol-4-yl)-2-(hydroxyimino)acetamido)-2-hydroxy-7-((1-methylpyrrolidin-1-ium-1-yl)methyl)-3,4-dihydro-2H-benzo[e][1,2]oxaborinine-8-carboxylate], the minimum inhibitory concentration (MIC) in assay [1] is under 64 µg/mL.

For `NCCNC(=O)CO/N=C(\C(=O)N[C@H]1Cc2cccc(C(=O)O)c2OB1O)c1csc(N)n1` [Example 54, (R,Z)-3-(2-((2-((2-aminoethyl)amino)-2-oxoethoxy)imino)-2-(2-aminothiazol-4-yl)acetamido)-2-hydroxy-3,4-dihydro-2H-benzo[e][1,2]oxaborinine-8-carboxylic Acid], the values for the minimal inhibitory concentration (MIC) in assay [1] and in assay [2] were over 128 µg/mL and under 64 µg/mL, respectively.

Take `Nc1nc(/C(=N/OCCCBr)C(=O)N[C@H]2Cc3cccc(C(=O)O)c3OB2O)cs1` [Example 116, (R,Z)-3-(2-(2-aminothiazol-4-yl)-2-((3-bromopropoxy)imino)acetamido)-2-hydroxy-3,4-dihydro-2H-benzo[e][1,2]oxaborinine-8-carboxylic Acid]: the MIC in assay [1] and in assay [2] was over 128 µg/mL in each case.

For `Cc1cc(C)n2c1C=C1C=CC(CCC(=O)NCCON=C(C(=O)N[C@H]3Cc4cccc(C(=O)O)c4OB3O)c3csc(N)n3)=[N+]1[B-]2(F)F` [Example 125, (R)-3-(2-(2-aminothiazol-4-yl)-2-((2-(3-(5,5-difluoro-7,9-dimethyl-5H-4λ^4,5λ^4-dipyrrolo[1,2-c:2′,1′-f][1,3,2]diazaborinin-3-yl)propanamido)ethoxy)imino)acetamido)-2-hydroxy-3,4-dihydro-2H-benzo[e][1,2]oxaborinine-8-carboxylic Acid], the “S. aureus 29213 MIC” value in assay [1] was “A (A represents an MIC >128 μg/mL)”. Besides, the “E. coli 901C MIC” value in assay [2] (broth microdilution, 16-20 hours at 37° C.) is “A (A represents an MIC >128 μg/mL)”.

`C[N+]1(Cc2cc3c(c(C(=O)[O-])c2)OB(O)[C@@H](NC(=O)/C(=N\O)c2csc(N)n2)C3)CCCC1` [Example 34, (R,Z)-3-(2-(2-aminothiazol-4-yl)-2-(hydroxyimino)acetamido)-2-hydroxy-6-((1-methylpyrrolidin-1-ium-1-yl)methyl)-3,4-dihydro-2H-benzo[e][1,2]oxaborinine-8-carboxylate]: the MIC in assay [1] is under 64 µg/mL.

In the case of `Nc1nc(/C(=N/O)C(=O)N[C@H]2Cc3ccc(CN4CCC(CO)CC4)c(C(=O)O)c3OB2O)cs1` [Example 29, (R,Z)-3-(2-(2-aminothiazol-4-yl)-2-(hydroxyimino)acetamido)-2-hydroxy-7-((4-(hydroxymethyl)piperidin-1-yl)methyl)-3,4-dihydro-2H-benzo[e][1,2]oxaborinine-8-carboxylic Acid], in assay [1], the MIC is over 128 µg/mL.

Turning to `Nc1nc(/C(=N/O)C(=O)N[C@H]2Cc3cc(C(=O)O)cc(C(=O)O)c3OB2O)cs1` [Example 38, (R,Z)-3-(2-(2-aminothiazol-4-yl)-2-(hydroxyimino)acetamido)-2-hydroxy-3,4-dihydro-2H-benzo[e][1,2]oxaborinine-6,8-dicarboxylic Acid], the MIC in assay [1] is over 128 µg/mL.

For the molecule `C[N+]1(Cc2ccc3c(c2C(=O)[O-])OB(O)[C@@H](NC(=O)/C(=N\O)c2csc(N)n2)C3)CCC(CO)CC1` (stereo partly drawn) [Example 30, (R,Z)-3-(2-(2-aminothiazol-4-yl)-2-(hydroxyimino)acetamido)-2-hydroxy-7-((4-(hydroxymethyl)-1-methylpiperidin-1-ium-1-yl)methyl)-3,4-dihydro-2H-benzo[e][1,2]oxaborinine-8-carboxylate], the minimal inhibitory concentration (MIC) in assay [1] was under 64 µg/mL.

Take `CN(CC(=O)O)Cc1ccc2c(c1C(=O)O)OB(O)[C@@H](NC(=O)/C(=N\O)c1csc(N)n1)C2` [Example 31, (R,Z)-3-(2-(2-aminothiazol-4-yl)-2-(hydroxyimino)acetamido)-7-(((carboxymethyl)(methyl)amino)methyl)-2-hydroxy-3,4-dihydro-2H-benzo[e][1,2]oxaborinine-8-carboxylic Acid]: the MIC in assay [1] was over 128 µg/mL.

On to `COC(=O)CCc1cc2c(c(C(=O)O)c1)OB(O)[C@@H](NC(=O)/C(=N\O)c1csc(N)n1)C2` [Example 36, (R,Z)-3-(2-(2-aminothiazol-4-yl)-2-(hydroxyimino)acetamido)-2-hydroxy-6-(3-methoxy-3-oxopropyl)-3,4-dihydro-2H-benzo[e][1,2]oxaborinine-8-carboxylic Acid], for which, in assay [1], the MIC is under 64 µg/mL.

Source of the values: patent US11267826B2, “Penicillin-binding protein inhibitors” (priority 2017, dated 2022).
